Data: patent publication US20110009332A1, “Therapeutic Treatment Of Wounds” (SOUTHWEST RESEARCH INSTITUTE, priority 2009, published 2011)

Biological target: 20S proteasomes (Homo sapiens, UniProt P28074)
Experiment: Inhibition of 20S proteasome enzyme activity
Type: biochemical
Settings: 0 nM to 10,000 nM, FIGS. 7-9
Procedure: The IC50 may be understood as the amount of a particular substance/molecule needed to inhibit a given biological process in vitro by 50% and may be an indicator of the potency of a compound. The activity of the proteasome may be quantified by measuring the amount of fluorescence produced by cleavage of a fluorogenic substrate, such as LLVY-AMC, which when released by proteasomal cleavage, may emit fluorescent light.
The enzyme activity of 20S proteasomes was measured upon increasing addition of the proteasome inhibitors PS-1, curcumin and genestein in concentrations ranging from 0 nM to 10,000 nM. In particular, FIG. 7 illustrates the inhibition of 20S proteasomes upon the addition of PS-1. […] FIG. 8 illustrates the inhibition of the 20S proteasomes upon the addition of curcumin. […] FIG. 9 illustrates the inhibition of the 20S proteasomes upon the addition of genestein.

O=c1c(-c2ccc(O)cc2)coc2cc(O)cc(O)c12 [genestein]
enzyme activity of 20S proteasomes with increasing inhibitor concentration (in words): relatively smaller decrease in enzyme activity
